In ChEMBL document CHEMBL5038625, “Application of the dual-tail approach for the design and synthesis of novel Thiopyrimidine-Benzenesulfonamide hybrids as selective carbonic anhydrase inhibitors” (Eur J Med Chem, 2022):

How the values were obtained:
MOLT-4 = experiment: Antiproliferative activity against human MOLT-4 cells assessed as cell growth inhibition at 10 uM incubated for 24 hrs by sulforhodamine B assay; type: functional; conditions: read-out: GI
NCI-H460 = experiment: Antiproliferative activity against human NCI-H460 cells assessed as cell growth inhibition at 10 uM incubated for 24 hrs by sulforhodamine B assay; type: functional; conditions: read-out: GI
Carbonic anhydrase 9 = Carbonic anhydrase 9 (Homo sapiens, UniProt Q16790); experiment: Inhibition of human CA9 preincubated for 15 mins by phenol red dye based stopped flow CO2 hydration assay
Carbonic anhydrase 2 = Carbonic anhydrase 2 (Homo sapiens, UniProt P00918); experiment: Inhibition of human CA2 preincubated for 15 mins by phenol red dye based stopped flow CO2 hydration assay
HCT-15 = experiment: Antiproliferative activity against human HCT-15 cells assessed as cell growth inhibition at 10 uM incubated for 24 hrs by sulforhodamine B assay; type: functional; conditions: read-out: GI
LOX IMVI = experiment: Antiproliferative activity against human LOX IMVI cells assessed as cell growth inhibition at 10 uM incubated for 24 hrs by sulforhodamine B assay; type: functional; conditions: read-out: GI
SR = experiment: Antiproliferative activity against human SR cells assessed as cell growth inhibition at 10 uM incubated for 24 hrs by sulforhodamine B assay; type: functional; conditions: read-out: GI
CAKI-1 = experiment: Antiproliferative activity against human CAKI-1 cells assessed as cell growth inhibition at 10 uM incubated for 24 hrs by sulforhodamine B assay; type: functional; conditions: read-out: GI
ACHN = experiment: Antiproliferative activity against human ACHN cells assessed as cell growth inhibition at 10 uM incubated for 24 hrs by sulforhodamine B assay; type: functional; conditions: read-out: GI
CCRF-CEM = experiment: Antiproliferative activity against human CCRF-CEM cells assessed as cell growth inhibition at 10 uM incubated for 24 hrs by sulforhodamine B assay; type: functional; conditions: read-out: GI
K562 = experiment: Antiproliferative activity against human K562 cells assessed as cell growth inhibition at 10 uM incubated for 24 hrs by sulforhodamine B assay; type: functional; conditions: read-out: GI
SW-620 = experiment: Antiproliferative activity against human SW-620 cells assessed as cell growth inhibition at 10 uM incubated for 24 hrs by sulforhodamine B assay; type: functional; conditions: read-out: GI
SNB-75 = experiment: Antiproliferative activity against human SNB-75 cells assessed as cell growth inhibition at 10 uM incubated for 24 hrs by sulforhodamine B assay; type: functional; conditions: read-out: GI
HL-60 = experiment: Antiproliferative activity against human HL-60 cells assessed as cell growth inhibition at 10 uM incubated for 24 hrs by sulforhodamine B assay; type: functional; conditions: read-out: GI
Carbonic anhydrase 1 = Carbonic anhydrase 1 (Homo sapiens, UniProt P00915); experiment: Inhibition of human CA1 preincubated for 15 mins by phenol red dye based stopped flow CO2 hydration assay
UACC-62 = experiment: Antiproliferative activity against human UACC-62 cells assessed as cell growth inhibition at 10 uM incubated for 24 hrs by sulforhodamine B assay; type: functional; conditions: read-out: GI
A498 = experiment: Antiproliferative activity against human A498 cells assessed as cell growth inhibition at 10 uM incubated for 24 hrs by sulforhodamine B assay; type: functional; conditions: read-out: GI
UO-31 = experiment: Antiproliferative activity against human UO-31 cells assessed as cell growth inhibition at 10 uM incubated for 24 hrs by sulforhodamine B assay; type: functional; conditions: read-out: GI
MCF7 [1] = experiment: Antiproliferative activity against human MCF7 cells assessed as reduction in cell viability incubated for 24 hrs by sulforhodamine B assay; type: functional, cell-based; conditions: MCF7, 24 h
MDA-MB-231 [2] = experiment: Antiproliferative activity against human MDA-MB-231 cells assessed as cell growth inhibition at 10 uM incubated for 24 hrs by sulforhodamine B assay; type: functional; conditions: read-out: GI
MDA-MB-231 [3] = experiment: Antiproliferative activity against human MDA-MB-231 cells assessed as reduction in cell viability incubated for 24 hrs by sulforhodamine B assay; type: functional, cell-based; conditions: MDA-MB-231, 24 h
OVCAR-4 = experiment: Antiproliferative activity against human OVCAR-4 cells assessed as cell growth inhibition at 10 uM incubated for 24 hrs by sulforhodamine B assay; type: functional; conditions: read-out: GI
Malme-3M = experiment: Antiproliferative activity against human Malme-3M cells assessed as cell growth inhibition at 10 uM incubated for 24 hrs by sulforhodamine B assay; type: functional; conditions: read-out: GI
A549 = experiment: Antiproliferative activity against human A549 cells assessed as cell growth inhibition at 10 uM incubated for 24 hrs by sulforhodamine B assay; type: functional; conditions: read-out: GI
T47D [4] = experiment: Antiproliferative activity against human T47D cells assessed as cell growth inhibition at 10 uM incubated for 24 hrs by sulforhodamine B assay; type: functional; conditions: read-out: GI
KM12 = experiment: Antiproliferative activity against human KM12 cells assessed as cell growth inhibition at 10 uM incubated for 24 hrs by sulforhodamine B assay; type: functional; conditions: read-out: GI
U-251 = experiment: Antiproliferative activity against human U-251 cells assessed as cell growth inhibition at 10 uM incubated for 24 hrs by sulforhodamine B assay; type: functional; conditions: read-out: GI
RPMI-8226 = experiment: Antiproliferative activity against human RPMI-8226 cells assessed as cell growth inhibition at 10 uM incubated for 24 hrs by sulforhodamine B assay; type: functional; conditions: read-out: GI
T47D [5] = experiment: Antiproliferative activity against human T47D cells assessed as reduction in cell viability incubated for 24 hrs by sulforhodamine B assay; type: functional, cell-based
NCI-H522 = experiment: Antiproliferative activity against human NCI-H522 cells assessed as cell growth inhibition at 10 uM incubated for 24 hrs by sulforhodamine B assay; type: functional; conditions: read-out: GI
PC-3 = experiment: Antiproliferative activity against human PC-3 cells assessed as cell growth inhibition at 10 uM incubated for 24 hrs by sulforhodamine B assay; type: functional; conditions: read-out: GI
NCI-H23 = experiment: Antiproliferative activity against human NCI-H23 cells assessed as cell growth inhibition at 10 uM incubated for 24 hrs by sulforhodamine B assay; type: functional; conditions: read-out: GI
RXF 393 = experiment: Antiproliferative activity against human RXF 393 cells assessed as cell growth inhibition at 10 uM incubated for 24 hrs by sulforhodamine B assay; type: functional; conditions: read-out: GI
SNB-19 = experiment: Antiproliferative activity against human SNB-19 cells assessed as cell growth inhibition at 10 uM incubated for 24 hrs by sulforhodamine B assay; type: functional; conditions: read-out: GI
MDA-MB-468 = experiment: Antiproliferative activity against human MDA-MB-468 cells assessed as cell growth inhibition at 10 uM incubated for 24 hrs by sulforhodamine B assay; type: functional; conditions: read-out: GI
MCF7 [6] = experiment: Antiproliferative activity against human MCF7 cells assessed as cell growth inhibition at 10 uM incubated for 24 hrs by sulforhodamine B assay; type: functional; conditions: read-out: GI
HOP-92 = experiment: Antiproliferative activity against human HOP-92 cells assessed as cell growth inhibition at 10 uM incubated for 24 hrs by sulforhodamine B assay; type: functional; conditions: read-out: GI
SF-539 = experiment: Antiproliferative activity against human SF-539 cells assessed as cell growth inhibition at 10 uM incubated for 24 hrs by sulforhodamine B assay; type: functional; conditions: read-out: GI
Hs-578T = experiment: Antiproliferative activity against human HS-578T cells assessed as cell growth inhibition at 10 uM incubated for 24 hrs by sulforhodamine B assay; type: functional; conditions: read-out: GI
DU-145 = experiment: Antiproliferative activity against human DU-145 cells assessed as cell growth inhibition at 10 uM incubated for 24 hrs by sulforhodamine B assay; type: functional; conditions: read-out: GI

Sequence of Carbonic anhydrase 1 (P00915 whole entry): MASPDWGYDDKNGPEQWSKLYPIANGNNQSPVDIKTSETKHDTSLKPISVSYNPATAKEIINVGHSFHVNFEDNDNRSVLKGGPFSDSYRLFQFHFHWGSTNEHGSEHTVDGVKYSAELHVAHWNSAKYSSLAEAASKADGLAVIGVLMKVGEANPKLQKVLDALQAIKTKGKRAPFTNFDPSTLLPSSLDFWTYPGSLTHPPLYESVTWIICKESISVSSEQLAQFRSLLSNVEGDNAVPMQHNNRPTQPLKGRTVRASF

| Ki (Carbonic anhydrase 9) [µM] | Ki (Carbonic anhydrase 2) [µM] | Ki (Carbonic anhydrase 1) [µM] | SMILES | inhibition of growth at 10 µM (MOLT-4) [%] | inhibition of growth at 10 µM (HCT-15) [%] | inhibition of growth at 10 µM (LOX IMVI) [%] | inhibition of growth at 10 µM (SR) [%] | inhibition of growth at 10 µM (CAKI-1) [%] | inhibition of growth at 10 µM (ACHN) [%] | inhibition of growth at 10 µM (CCRF-CEM) [%] | inhibition of growth at 10 µM (K562) [%] | inhibition of growth at 10 µM (SNB-75) [%] | inhibition of growth at 10 µM (HL-60) [%] | inhibition of growth at 10 µM (UACC-62) [%] | inhibition of growth at 10 µM (UO-31) [%] | inhibition of growth at 10 µM (Malme-3M) [%] | inhibition of growth at 10 µM (T47D [4]) [%] | inhibition of growth at 10 µM (RPMI-8226) [%] | inhibition of growth at 10 µM (NCI-H522) [%] | inhibition of growth at 10 µM (PC-3) [%] | other results |
| --- | --- | --- | --- | --- | --- | --- | --- | --- | --- | --- | --- | --- | --- | --- | --- | --- | --- | --- | --- | --- | --- |
| 0.0915 | > 20 | > 20 | COc1ccc(C(=O)CSc2nc(Nc3ccc(S(N)(=O)=O)cc3)cc(-c3ccccc3)n2)cc1 | 22.1 | 9.43 | 26.1 | 27 | 12.6 | 28 | 11 | 46.3 | 10.4 | 15 | 13.2 | 13 |  |  |  |  |  | inhibition of growth at 10 µM (NCI-H460): 26.9%; inhibition of growth at 10 µM (SW-620): 13.9%; inhibition of growth at 10 µM (A498): 19.8% |
| 0.3 | > 20 | > 20 | COc1ccc(C(=O)CSc2nc(Nc3cccc(S(N)(=O)=O)c3)cc(-c3ccccc3)n2)cc1 | 26.2 | 13.8 |  | 23.7 | 7.16 |  | 16.9 | 12.7 | 12.3 |  | 8.31 | 16.4 | 7.42 | 20.2 | 6.7 | 6.62 | 15.8 | IC50 (MCF7 [1]): 30.9 µM; inhibition of growth at 10 µM (MDA-MB-231 [2]): 6.45%; IC50 (MDA-MB-231 [3]): 42.5 µM; inhibition of growth at 10 µM (OVCAR-4): 12.2%; inhibition of growth at 10 µM (A549): 7.98%; inhibition of growth at 10 µM (KM12): 6.88%; inhibition of growth at 10 µM (U-251): 6.41%; IC50 (T47D [5]): 28 µM |
| 0.0949 | > 20 |  | COc1ccc(C(=O)CSc2nc(Nc3cccc(S(N)(=O)=O)c3)c(C#N)c(C(C)C)n2)cc1 | 13.4 | 6.79 |  | 11 | 10.8 | 6.14 | 6.87 | 18.5 |  | 6.4 | 11.6 | 20.4 |  | 14.2 | 5.91 | 6.43 | 7.35 | inhibition of growth at 10 µM (NCI-H23): 11%; inhibition of growth at 10 µM (RXF 393): 10.2%; inhibition of growth at 10 µM (SNB-19): 5.74%; inhibition of growth at 10 µM (MDA-MB-468): 8.74%; inhibition of growth at 10 µM (MCF7 [6]): 12.9%; inhibition of growth at 10 µM (HOP-92): 11.6%; inhibition of growth at 10 µM (SF-539): 7.32% |
| 8.74 | > 20 | > 20 | Cc1ccc(-c2nc(SCC(=O)c3ccc(Br)cc3)nc(Nc3ccc(S(N)(=O)=O)cc3)c2C#N)cc1 |  | 11.3 | 11.8 | 11.4 | 13.7 |  |  | 8 |  | < 5 |  | 22.4 | 8.67 |  |  |  |  | inhibition of growth at 10 µM (NCI-H23): 6.49%; inhibition of growth at 10 µM (Hs-578T): 14.3%; inhibition of growth at 10 µM (MCF7 [6]): 16.5%; inhibition of growth at 10 µM (DU-145): 47.5%; inhibition of growth at 10 µM (HOP-92): 40.4%; inhibition of growth at 10 µM (SF-539): 17.1% |
